# Data from PMC6932632 (Biochemistry, 2019).
# Biological target: T1, p38γ (Homo sapiens, UniProt P53778)
# T1 sequence (P53778 1-367): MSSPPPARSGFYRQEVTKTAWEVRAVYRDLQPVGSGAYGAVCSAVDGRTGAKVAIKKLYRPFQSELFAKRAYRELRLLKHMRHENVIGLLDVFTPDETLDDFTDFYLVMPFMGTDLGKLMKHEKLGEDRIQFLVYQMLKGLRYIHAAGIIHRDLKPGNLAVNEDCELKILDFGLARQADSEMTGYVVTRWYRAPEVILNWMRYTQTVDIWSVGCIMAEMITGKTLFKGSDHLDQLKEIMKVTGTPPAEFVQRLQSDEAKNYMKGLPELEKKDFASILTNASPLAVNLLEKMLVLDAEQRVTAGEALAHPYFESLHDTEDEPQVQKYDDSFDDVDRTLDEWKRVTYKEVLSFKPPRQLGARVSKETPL
# Test: NMR titration
# Assay type: binding
structure (smiles),measurement,value
Nc1ncnc2c1ncn2[C@@H]1O[C@H](COP(=O)(O)OP(=O)(O)OP(=O)(O)O)[C@@H](O)[C@H]1O [ATP],Kd,770 µM
